Assay results as given in patent US10570179B2, “Substituted urea depsipeptide analogs as activators of the CLPP endopeptidase” (priority 2016, dated 2020).
≈ marks a conversion by molar mass, not a printed value. Like-named read-outs stand apart in the source and are kept apart here. Numbered stars: 1 amine (or outer) side, 2 acyl side, 3 side chain; on linkers, the order of the positions; unused ones are H or OH. Bridge positions count the residues as written; N and C are the ends. Square brackets hold non-standard residues; d marks the D form. Peptide text beside a SMILES is read from it. * marks the point of attachment. Phe(3-Me) = Cc1cccc(C[C@H](N)C(=O)O)c1; NH(4-Cl-2-F-phenyl) = Fc1cc(Cl)ccc1N*; Hyp = O=C(O)[C@@H]1C[C@@H](O)CN1; NH(4-Cl-phenyl) = Clc1ccc(N*)cc1; NH(4-Me-phenyl) = Cc1ccc(N*)cc1; aThr = C[C@H](O)[C@H](N)C(=O)O; Pip = O=C(O)[C@@H]1CCCCN1; CO = O=C([*:1])[*:2]

Assays:
[1] = system: E. faecails; test: Minimal inhibitory concentration, microbroth dilution; format: cell-based; settings: Enterococcus faecalis
Procedure: (§1) Minimal inhibitory concentrations (“MICs”) were determined using the microbroth dilution method according to Clinical Laboratory Standards Institute (CLSI; National, C.F. C. L. S., Methods for Dilution Antimicrobial Susceptibility Tests for Bacteria Grow aerobically-Seventh Edition: Approved Standard M7-A7, CLSI, Wayne, Pa., USA, 2008) and were read by visual inspection. Two fold serial dilutions of test compound in 100 μL of the appropriate broth media were first prepared in 96-well round bottom microtiter plates (Nalgene Nunc International, Rochester, N.Y., USA). An equivalent volume (100 μL) of bacterial broth inocula containing approximately 10^5 bacterial cfu/mL was added to each well to give final concentrations of test compound starting at 200 μM. The plates were then incubated aerobically at 37° C. All strains were incubated overnight. After incubations, in all cases the MIC was recorded as the lowest concentration of drug that prevented bacterial growth. The bacterial strains for which MIC was determined as described in Table 4.

[2] = system: MRSA NRS70; test: as above; format: cell-based; settings: Staphylococcus aureus
Procedure: as §1

[3] = system: S. aureus ATCC 29213; test: as above; format: cell-based; settings: Staphylococcus aureus
Procedure: as §1

[4] = system: S. aureus USA 300; test: as above; format: cell-based; settings: Staphylococcus aureus
Procedure: as §1

[5] = system: S. aureus ΔClpP; test: as above; format: cell-based, Staphylococcus aureus; settings: MIC; ClpP inactivated
Procedure: as §1

[6] = target: T1, S. aureus ClpP (Sa-ClpP) (Staphylococcus aureus, UniProt Q2G036); test: Casein-BODIPY digestion assay (ClpP activation); format: biochemical
T1 construct: made in house; host or cells: E. coli BL21 (DE3)
T1 sequence (Q2G036 whole entry): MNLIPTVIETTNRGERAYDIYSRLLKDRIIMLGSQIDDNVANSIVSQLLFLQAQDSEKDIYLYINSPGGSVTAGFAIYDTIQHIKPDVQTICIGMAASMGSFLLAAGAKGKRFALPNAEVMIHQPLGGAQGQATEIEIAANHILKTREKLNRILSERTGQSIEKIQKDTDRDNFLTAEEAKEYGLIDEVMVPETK
Procedure: The compounds were assayed in a casein digestion assay in order to determine their effect on ClpP activation. Briefly, the assay was carried out using S. aureus ClpP (“Sa-ClpP”) overexpressed in E. coli BL21 (DE3) and purified in a two-step process. Purity of the protein was assessed through SDS PAGE analysis. EC50 evaluations were conducted in triplicate in a 20 μl assay format using a method adapted from Maurizi et al. (Methods Enzymol. (1994) 244:314-331). Each well contained 10 μM saClpP, 25 μg/ml BODIPY FL casein (Invitrogen Corporation, San Diego, Calif.), and test compound in concentrations ranging between 0-1000 μM in assay buffer (50 mM Tris pH 8, 200 mM KCl, and 1 mM TCEP). The reaction took place at 37° C. Fluorescence (excitation 485 nm; emission 528 nm) was measured in five minute intervals over a 45 min period using a BioTek HT fluorescence microplate reader (BioTek Instruments, Inc., Winooski, Vt.). Velocity of each reaction was calculated and data was fit to a dose response curve using GraphPad Prism® software (GraphPad Software, Inc., La Jolla, Calif.). EC50 is the effective concentration of compound which causes 50% activation of S. aureus ClpP in the foregoing BODIPY FL casein assay.
Alternatively, the assay was carried out using EnzCheck Protease Assay (Molecular Probes, Catalog # E6638). The assay was performed in black 384 well, flat bottom, low volume plates (Greiner Bio-One, Monroe, N.C., catalog #784076). 10 μL of Tris.HCl buffer, pH 8.0 with 0.01% Triton X-100 was pipetted into each well using a Well-Mate (Thermo Scientific, Waltham, Mass.). 0.4 μL test compounds or controls (2% DMSO v/v) were added to each well using a Biomek FX liquid handling robot (Beckman Coulter, Indianapolis, Ind.). After addition of test compounds and controls, 10 μL of master mix containing 2 μM Sa-ClpP and 2 μM substrate (Bodipy-FL labeled casein) in Tris.HCl buffer, pH 8.0 with 0.01% (v/v) Triton X-100, was pipetted into each well. All assays were performed in triplicate, under linear velocity conditions. Increase in fluorescent signal following activation of Sa-ClpP by test compounds and controls was measured over time period of 30 mins using filters with excitation at 485±15 nm and emission at 520±25 nm on a PHERAstar FS Multilabel reader (BMG, Cary, N.C.). Instrument gains and enzyme linear velocity conditions were determined and validated using ADEP4, a known Sa-ClpP activator. Data analysis was done by measuring rate of casein degradation over time (slopes). Computed degradation rates (slopes) were normalized to positive (ADEP4) or negative (DMSO) controls. Using nonlinear regression curve fitting EC50 values and % activation were determined using the equation “log [agonist] vs. Response-variable slope (four parameters)-symmetrical” in the program Prism 6 (GraphPad Software, La Jolla, Calif. USA, www.graphpad.com).

[7] = MIC, read-out: Minimal Inhibitory Concentrations (μM) E. faecails
[8] = MIC, read-out: Minimal Inhibitory Concentrations (μM) MRSA NRS70
[9] = ATCC29213, MIC, read-out: Minimal Inhibitory Concentrations (μM) S. aureus ATCC 29213
[10] = USA300, MIC, read-out: Minimal Inhibitory Concentrations (μM) S. aureus USA 300
[11] = read-out: Minimal Inhibitory Concentrations (μM) E. faecails, MIC
[12] = read-out: Minimal Inhibitory Concentrations (μM) MRSA NRS70, MIC
[13] = ATCC29213, read-out: Minimal Inhibitory Concentrations (μM) S. aureus ATCC 29213, MIC
[14] = USA300, read-out: Minimal Inhibitory Concentrations (μM) S. aureus USA 300, MIC

Row | Compound | MIC [1, 7] | MIC [2, 8] | MIC [3, 9] | MIC [4, 10] | Minimal Inhibitory Concentrations (μM) S. aureus ΔClpP [5] | MIC [1, 11] | MIC [2, 12] | MIC [3, 13] | MIC [4, 14] | EC50 [6]
1 | Cc1cccc(C[C@H](NC(=O)Nc2ccc(Cl)cc2F)C(=O)N[C@H]2COC(=O)[C@@H]3CCCN3C(=O)[C@H](C)NC(=O)[C@@H]3CCCCN3C(=O)[C@@H]3C[C@@H](O)CN3C2=O)c1 [Compound 48, (S)-2-(3-(4-CHLORO-2-FLUOROPHENYL)UREIDO)-N-((6S,8AS,14AS,16R,20S,23AS)-16-HYDROXY-6-METHYL-5,8,14,19,23-PENTAOXOOCTADECAHYDRO-1H,5H,14H,19H-PYRIDO[2,1-I]DIPYRROLO[2,1-C:2′,1′-L][1]OXA[4,7,10,13]TETRAAZACYCLOHEXADECIN-20-YL)-3-(M-TOLYL)PROPANAMIDE] | 2.5 µM (≈ 2.03 µg/mL) | 1.25 µM (≈ 1.02 µg/mL) | 1.25 µM (≈ 1.02 µg/mL) | 1.25 µM (≈ 1.02 µg/mL) |  |  |  |  |  | 
2 | Cc1cccc(C[C@H](NC(=O)Nc2ccc(Cl)cc2F)C(=O)N[C@@H]2C(=O)N3C[C@H](O)C[C@H]3C(=O)N3CCCC[C@H]3C(=O)N[C@@H](C)C(=O)N3CCC[C@H]3C(=O)O[C@H]2C)c1 [Compound 50, (S)-2-(3-(4-CHLORO-2-FLUOROPHENYL)UREIDO)-N-((6S,8AS,14AS,16R,20S,21S,23AS)-16-HYDROXY-6,21-DIMETHYL-5,8,14,19,23-PENTAOXOOCTADECAHYDRO-1H,5H,14H,19H-PYRIDO[2,1-I]DIPYRROLO[2,1-C:2′,1′-L][1]OXA[4,7,10,13]TETRAAZACYCLOHEXADECIN-20-YL)-3-(M-TOLYL)PROPANAMIDE] ({NH(4-Cl-2-F-phenyl)-CO}-[Phe(3-Me)][aThr][Hyp][Pip]AP; ester 2-C) | 2.5 µM (≈ 2.07 µg/mL) | 0.313 µM (≈ 0.259 µg/mL) | 0.625 µM (≈ 0.516 µg/mL) | 1.25 µM (≈ 1.03 µg/mL) | >20 µM |  |  |  |  | 
3 | Cc1ccc(NC(=O)N[C@@H](Cc2cccc(C)c2)C(=O)N[C@@H]2C(=O)N3C[C@H](O)C[C@H]3C(=O)N3CCCC[C@H]3C(=O)N[C@@H](C)C(=O)N3CCC[C@H]3C(=O)O[C@H]2C)cc1 [Compound 51, (S)—N-((6S,8AS,14AS,16R,20S,21S,23AS)-16-HYDROXY-6,21-DIMETHYL-5,8,14,19,23-PENTAOXOOCTADECAHYDRO-1H,5H,14H,19H-PYRIDO[2,1-I]DIPYRROLO[2,1-C:2′,1′-L][1]OXA[4,7,10,13]TETRAAZACYCLOHEXADECIN-20-YL)-3-(M-TOLYL)-2-(3-(P-TOLYL)UREIDO)PROPANAMIDE] ({NH(4-Me-phenyl)-CO}-[Phe(3-Me)][aThr][Hyp][Pip]AP; ester 2-C) |  |  |  |  | >20 µM | 5 µM (≈ 3.94 µg/mL) | 2.5 µM (≈ 1.97 µg/mL) | 5 µM (≈ 3.94 µg/mL) | 5 µM (≈ 3.94 µg/mL) | 
4 | Cc1cccc(C[C@H](NC(=O)Nc2ccc(Cl)cc2)C(=O)N[C@@H]2C(=O)N3C[C@H](O)C[C@H]3C(=O)N3CCCC[C@H]3C(=O)N[C@@H](C)C(=O)N3CCC[C@H]3C(=O)O[C@H]2C)c1 [Compound 59, (S)-2-(3-(4-CHLOROPHENYL)UREIDO)-N-((6S,8AS,14AS,16R,20S,21S,23AS)-16-HYDROXY-6,21-DIMETHYL-5,8,14,19,23-PENTAOXOOCTADECAHYDRO-1H,5H,14H,19H-PYRIDO[2,1-I]DIPYRROLO[2,1-C:2′,1′-L][1]OXA[4,7,10,13]TETRAAZACYCLOHEXADECIN-20-YL)-3-(M-TOLYL)PROPANAMIDE] ({NH(4-Cl-phenyl)-CO}-[Phe(3-Me)][aThr][Hyp][Pip]AP; ester 2-C) |  |  |  |  |  | 5 µM (≈ 4.04 µg/mL) | 1.25 µM (≈ 1.01 µg/mL) | 2.5 µM (≈ 2.02 µg/mL) | 1.25 µM (≈ 1.01 µg/mL) | 810 ± 500 nM
